Reference: paper PMC12196347, “Evaluating Triazole-Substituted Pyrrolopyrimidines as CSF1R Inhibitors” (Molecules, 2025)
Where two headings read alike, the source gives them in different places.

Key:
CSF1R Ba/F3 cells = assay: Cell viability assay, Ba/F3 cells engineered to be dependent on CSF1R; assay type: cell-based; details: Mus musculus, BaF3, Ba/F3 cells dependent on CSF1R, duplicate measurements
[1] = system: KIT-positive cell line GIST-T1; assay: GIST-T1 CellTiter-Glo cell viability assay; assay type: cell-based; details: Homo sapiens, GISTT1; cellular proliferation, GIST-T1, 72 h
[2] = Human liver microsome intrinsic clearance, Phase I; assay type: in vitro ADME; details: in vitro intrinsic clearance
MDCK permeability assay = assay type: in vitro ADME, canine; details: dog, MDCK cell monolayer
[3] = Mouse plasma protein binding; assay type: in vitro ADME; details: fraction bound, read-out: PPB (converted)
panel of 49 kinases = assay: Selectivity score from the kinase panel; assay type: biochemical; details: 1000 nM
ABL1 = molecular target: T1, ABL1 (Homo sapiens, UniProt P00519); assay: Kinase panel profiling: ABL1; assay type: biochemical; details: ATP equal to KM
T1 construct: purchased Thermo Fisher Scientific (Invitrogen) SelectScreen (Z'-LYTE)

AURKA (Aurora A) = molecular target: T2, AURKA (Aurora A) (Homo sapiens, UniProt O14965); assay: Kinase panel profiling: AURKA; assay type: biochemical; details: ATP equal to KM
T2 construct: purchased Thermo Fisher Scientific (Invitrogen) SelectScreen (Z'-LYTE)
T2 sequence (O14965 1-403): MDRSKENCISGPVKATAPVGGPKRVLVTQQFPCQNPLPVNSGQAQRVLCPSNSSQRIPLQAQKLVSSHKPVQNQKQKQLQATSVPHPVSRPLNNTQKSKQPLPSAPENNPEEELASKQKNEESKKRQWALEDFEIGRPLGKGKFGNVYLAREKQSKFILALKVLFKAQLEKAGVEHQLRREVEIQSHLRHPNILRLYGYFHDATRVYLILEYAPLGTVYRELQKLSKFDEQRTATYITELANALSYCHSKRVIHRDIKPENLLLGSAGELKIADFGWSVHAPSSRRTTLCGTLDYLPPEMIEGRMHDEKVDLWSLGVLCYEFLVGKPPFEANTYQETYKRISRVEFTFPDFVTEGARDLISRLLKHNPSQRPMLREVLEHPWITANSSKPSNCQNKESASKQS

BLK = molecular target: T3, BLK (Homo sapiens, UniProt P51451); assay: Kinase panel profiling: BLK; assay type: biochemical; details: ATP equal to KM
T3 construct: purchased Thermo Fisher Scientific (Invitrogen) SelectScreen (Z'-LYTE)

CAMK1D (CaMKI delta) = molecular target: T4, CAMK1D (CaMKI delta) (Homo sapiens, UniProt Q8IU85); assay: Kinase panel profiling: CAMK1D; assay type: biochemical; details: ATP equal to KM
T4 construct: purchased Thermo Fisher Scientific (Invitrogen) SelectScreen (Z'-LYTE)
T4 sequence (Q8IU85 whole entry): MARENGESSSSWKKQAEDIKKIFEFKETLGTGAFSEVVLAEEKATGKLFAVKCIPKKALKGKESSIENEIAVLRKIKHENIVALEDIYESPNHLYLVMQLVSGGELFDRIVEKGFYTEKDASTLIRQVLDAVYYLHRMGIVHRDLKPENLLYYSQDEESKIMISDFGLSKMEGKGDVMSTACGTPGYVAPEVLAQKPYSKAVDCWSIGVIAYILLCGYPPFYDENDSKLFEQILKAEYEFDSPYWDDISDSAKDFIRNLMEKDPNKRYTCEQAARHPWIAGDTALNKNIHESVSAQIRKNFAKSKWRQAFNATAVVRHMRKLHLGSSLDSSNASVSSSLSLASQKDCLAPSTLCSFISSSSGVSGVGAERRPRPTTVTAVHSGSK

CHEK1 (CHK1) = molecular target: T5, CHEK1 (CHK1) (Homo sapiens, UniProt O14757); assay: Kinase panel profiling: CHEK1; assay type: biochemical; details: ATP equal to KM
T5 construct: purchased Thermo Fisher Scientific (Invitrogen) SelectScreen (Z'-LYTE)
T5 sequence (O14757 1-476): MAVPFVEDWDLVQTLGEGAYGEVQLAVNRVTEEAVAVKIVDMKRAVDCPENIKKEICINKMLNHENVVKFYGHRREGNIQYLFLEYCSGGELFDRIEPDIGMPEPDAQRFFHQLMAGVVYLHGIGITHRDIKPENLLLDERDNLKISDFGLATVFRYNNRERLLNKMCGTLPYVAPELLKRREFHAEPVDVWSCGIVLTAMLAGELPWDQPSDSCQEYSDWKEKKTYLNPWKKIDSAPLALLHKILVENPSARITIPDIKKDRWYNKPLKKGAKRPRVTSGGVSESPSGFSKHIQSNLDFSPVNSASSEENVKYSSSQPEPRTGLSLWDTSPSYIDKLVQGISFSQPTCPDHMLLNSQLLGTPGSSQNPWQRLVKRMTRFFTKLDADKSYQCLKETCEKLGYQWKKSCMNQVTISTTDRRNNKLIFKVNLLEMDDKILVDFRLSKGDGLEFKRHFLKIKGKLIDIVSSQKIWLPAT

EGFR (ErbB1) = molecular target: T6, EGFR (ErbB1) (Homo sapiens, UniProt P00533); assay: Kinase panel profiling: EGFR; assay type: biochemical; details: ATP equal to KM
T6 construct: purchased Thermo Fisher Scientific (Invitrogen) SelectScreen (Z'-LYTE)
T6 sequence (P00533 25-1210): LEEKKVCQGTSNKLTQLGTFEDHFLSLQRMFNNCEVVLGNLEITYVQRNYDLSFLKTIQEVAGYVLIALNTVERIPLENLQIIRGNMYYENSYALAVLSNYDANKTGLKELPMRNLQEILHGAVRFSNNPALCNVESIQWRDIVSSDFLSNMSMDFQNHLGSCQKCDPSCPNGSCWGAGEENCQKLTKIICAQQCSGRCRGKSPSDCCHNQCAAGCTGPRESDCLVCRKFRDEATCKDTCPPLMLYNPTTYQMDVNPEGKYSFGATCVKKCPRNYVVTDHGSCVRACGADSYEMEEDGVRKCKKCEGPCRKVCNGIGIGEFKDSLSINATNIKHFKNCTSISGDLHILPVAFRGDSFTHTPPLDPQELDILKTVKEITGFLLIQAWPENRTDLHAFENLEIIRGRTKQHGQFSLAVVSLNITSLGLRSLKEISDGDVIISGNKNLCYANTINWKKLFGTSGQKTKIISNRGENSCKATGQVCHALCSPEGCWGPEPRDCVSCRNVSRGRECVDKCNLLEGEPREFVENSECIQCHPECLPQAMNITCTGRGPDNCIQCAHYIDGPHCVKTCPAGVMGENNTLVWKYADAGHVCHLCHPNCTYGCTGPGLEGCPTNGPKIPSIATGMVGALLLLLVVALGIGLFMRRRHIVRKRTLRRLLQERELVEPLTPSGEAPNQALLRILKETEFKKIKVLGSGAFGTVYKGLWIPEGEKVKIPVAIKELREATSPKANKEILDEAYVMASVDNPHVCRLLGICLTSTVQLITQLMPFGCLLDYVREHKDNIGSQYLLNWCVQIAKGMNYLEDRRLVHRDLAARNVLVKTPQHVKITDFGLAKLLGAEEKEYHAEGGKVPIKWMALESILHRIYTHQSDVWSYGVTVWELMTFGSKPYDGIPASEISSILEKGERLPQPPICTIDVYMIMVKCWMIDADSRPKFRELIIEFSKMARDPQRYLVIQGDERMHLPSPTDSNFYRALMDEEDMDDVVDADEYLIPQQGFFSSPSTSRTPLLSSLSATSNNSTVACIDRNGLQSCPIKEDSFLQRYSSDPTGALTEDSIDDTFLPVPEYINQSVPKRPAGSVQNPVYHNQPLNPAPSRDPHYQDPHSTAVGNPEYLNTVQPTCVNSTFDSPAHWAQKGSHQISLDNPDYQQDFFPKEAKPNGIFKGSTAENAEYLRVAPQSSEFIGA

FLT1 (VEGFR1) = molecular target: T7, FLT1 (VEGFR1) (Homo sapiens, UniProt P17948); assay: Kinase panel profiling: FLT1; assay type: biochemical; details: ATP equal to KM
T7 construct: purchased Thermo Fisher Scientific (Invitrogen) SelectScreen (Z'-LYTE)
T7 sequence (P17948 27-1338): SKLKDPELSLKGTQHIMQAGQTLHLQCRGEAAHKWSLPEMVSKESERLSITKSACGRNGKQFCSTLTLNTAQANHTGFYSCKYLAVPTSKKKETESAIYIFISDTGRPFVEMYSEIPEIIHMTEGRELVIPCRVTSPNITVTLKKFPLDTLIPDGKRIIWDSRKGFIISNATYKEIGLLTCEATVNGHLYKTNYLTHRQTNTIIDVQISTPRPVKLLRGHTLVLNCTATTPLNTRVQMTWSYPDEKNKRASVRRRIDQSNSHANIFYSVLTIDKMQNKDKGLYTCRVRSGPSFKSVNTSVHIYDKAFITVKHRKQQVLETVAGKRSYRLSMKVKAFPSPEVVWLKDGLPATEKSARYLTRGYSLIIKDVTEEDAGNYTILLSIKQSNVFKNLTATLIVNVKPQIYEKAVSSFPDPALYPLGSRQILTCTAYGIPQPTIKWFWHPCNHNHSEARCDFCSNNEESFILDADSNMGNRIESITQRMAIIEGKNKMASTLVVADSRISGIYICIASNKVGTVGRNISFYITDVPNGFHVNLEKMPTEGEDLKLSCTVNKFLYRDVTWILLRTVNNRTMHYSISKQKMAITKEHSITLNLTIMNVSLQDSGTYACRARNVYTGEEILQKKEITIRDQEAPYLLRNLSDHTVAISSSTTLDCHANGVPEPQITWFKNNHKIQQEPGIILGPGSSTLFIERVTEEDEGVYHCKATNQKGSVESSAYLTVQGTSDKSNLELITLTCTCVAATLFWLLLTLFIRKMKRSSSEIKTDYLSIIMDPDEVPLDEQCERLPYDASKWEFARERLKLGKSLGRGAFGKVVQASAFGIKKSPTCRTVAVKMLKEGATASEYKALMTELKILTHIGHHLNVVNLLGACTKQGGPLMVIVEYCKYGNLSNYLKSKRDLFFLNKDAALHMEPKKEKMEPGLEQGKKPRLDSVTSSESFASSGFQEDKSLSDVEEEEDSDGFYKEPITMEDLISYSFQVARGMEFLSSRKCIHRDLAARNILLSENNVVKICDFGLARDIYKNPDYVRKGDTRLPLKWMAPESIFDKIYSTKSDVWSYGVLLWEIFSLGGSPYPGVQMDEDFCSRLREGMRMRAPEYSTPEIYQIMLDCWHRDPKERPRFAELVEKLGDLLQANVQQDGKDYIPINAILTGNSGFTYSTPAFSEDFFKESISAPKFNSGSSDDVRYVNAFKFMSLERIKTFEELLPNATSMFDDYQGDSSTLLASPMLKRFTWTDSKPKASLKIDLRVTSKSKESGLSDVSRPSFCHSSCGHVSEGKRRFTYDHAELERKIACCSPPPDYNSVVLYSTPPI

FYN = molecular target: T8, FYN (Homo sapiens, UniProt P06241); assay: Kinase panel profiling: FYN; assay type: biochemical; details: ATP equal to KM
T8 construct: purchased Thermo Fisher Scientific (Invitrogen) SelectScreen (Z'-LYTE)
T8 sequence (P06241 whole entry): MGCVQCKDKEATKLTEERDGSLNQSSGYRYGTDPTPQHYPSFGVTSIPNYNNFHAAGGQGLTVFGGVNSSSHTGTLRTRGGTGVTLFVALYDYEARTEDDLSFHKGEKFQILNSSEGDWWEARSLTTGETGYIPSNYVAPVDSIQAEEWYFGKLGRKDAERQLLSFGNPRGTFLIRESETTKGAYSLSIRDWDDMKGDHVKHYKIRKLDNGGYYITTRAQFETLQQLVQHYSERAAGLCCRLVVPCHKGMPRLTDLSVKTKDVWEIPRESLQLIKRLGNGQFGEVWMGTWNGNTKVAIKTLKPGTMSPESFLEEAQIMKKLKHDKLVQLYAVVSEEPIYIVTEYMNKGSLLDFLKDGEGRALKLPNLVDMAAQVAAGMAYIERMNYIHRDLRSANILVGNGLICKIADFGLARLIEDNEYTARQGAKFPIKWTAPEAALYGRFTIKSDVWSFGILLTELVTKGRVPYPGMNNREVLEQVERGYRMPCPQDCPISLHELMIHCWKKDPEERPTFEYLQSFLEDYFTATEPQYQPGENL

GSK3B (GSK3 beta) = molecular target: T9, GSK3B (GSK3 beta) (Homo sapiens, UniProt P49841); assay: Kinase panel profiling: GSK3B; assay type: biochemical; details: ATP equal to KM
T9 construct: purchased Thermo Fisher Scientific (Invitrogen) SelectScreen (Z'-LYTE)

LTK (TYK1) = molecular target: T10, LTK (TYK1) (Homo sapiens, UniProt P29376); assay: Kinase panel profiling: LTK; assay type: biochemical; details: ATP equal to KM
T10 construct: purchased Thermo Fisher Scientific (Invitrogen) SelectScreen (Z'-LYTE)

MET (cMet) = molecular target: T11, MET (cMet) (Homo sapiens, UniProt P08581); assay: Kinase panel profiling: MET; assay type: biochemical; details: ATP equal to KM
T11 construct: purchased Thermo Fisher Scientific (Invitrogen) SelectScreen (Z'-LYTE)

MINK1 = molecular target: T12, MINK1 (Homo sapiens, UniProt Q8N4C8); assay: Kinase panel profiling: MINK1; assay type: biochemical; details: ATP equal to KM
T12 construct: purchased Thermo Fisher Scientific (Invitrogen) SelectScreen (Z'-LYTE)

MKNK1 (MNK1) = molecular target: T13, MKNK1 (MNK1) (Homo sapiens, UniProt Q9BUB5); assay: Kinase panel profiling: MKNK1; assay type: biochemical; details: ATP equal to KM
T13 construct: purchased Thermo Fisher Scientific (Invitrogen) SelectScreen (Z'-LYTE)

PDGFRB (PDGFR beta) = PDGFRB (PDGFR beta) (Homo sapiens, UniProt P09619); assay: Kinase panel profiling: PDGFRB; assay type: biochemical; details: ATP equal to KM
PDGFRB (PDGFR beta), sequence (P09619 33-1106): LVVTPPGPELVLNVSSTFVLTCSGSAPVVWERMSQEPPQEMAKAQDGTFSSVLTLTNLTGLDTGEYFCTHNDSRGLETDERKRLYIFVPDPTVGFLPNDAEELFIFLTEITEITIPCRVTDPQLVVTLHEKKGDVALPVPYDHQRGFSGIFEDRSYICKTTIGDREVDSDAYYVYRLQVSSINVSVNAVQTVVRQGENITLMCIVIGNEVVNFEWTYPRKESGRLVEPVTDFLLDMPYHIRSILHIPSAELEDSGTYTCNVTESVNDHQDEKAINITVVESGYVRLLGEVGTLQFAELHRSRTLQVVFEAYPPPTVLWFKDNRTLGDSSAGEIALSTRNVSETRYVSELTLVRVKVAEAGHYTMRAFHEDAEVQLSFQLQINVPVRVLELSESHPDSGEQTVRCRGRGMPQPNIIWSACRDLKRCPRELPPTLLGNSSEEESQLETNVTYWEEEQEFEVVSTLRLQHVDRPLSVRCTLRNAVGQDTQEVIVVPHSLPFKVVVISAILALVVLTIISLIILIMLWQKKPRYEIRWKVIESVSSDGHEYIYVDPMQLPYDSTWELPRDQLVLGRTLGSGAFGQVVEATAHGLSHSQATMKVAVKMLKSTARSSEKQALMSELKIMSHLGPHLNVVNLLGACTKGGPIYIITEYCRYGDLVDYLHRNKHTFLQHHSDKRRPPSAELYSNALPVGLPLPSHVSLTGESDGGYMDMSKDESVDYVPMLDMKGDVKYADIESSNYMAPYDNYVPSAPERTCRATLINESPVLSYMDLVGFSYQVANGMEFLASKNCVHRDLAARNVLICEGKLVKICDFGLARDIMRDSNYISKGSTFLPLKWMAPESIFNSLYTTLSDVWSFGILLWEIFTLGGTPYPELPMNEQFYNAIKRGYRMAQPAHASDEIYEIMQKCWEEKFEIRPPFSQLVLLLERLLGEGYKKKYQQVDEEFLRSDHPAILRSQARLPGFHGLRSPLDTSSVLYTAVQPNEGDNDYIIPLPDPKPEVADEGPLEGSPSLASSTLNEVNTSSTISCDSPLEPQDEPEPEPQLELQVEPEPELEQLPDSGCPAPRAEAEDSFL

TEK (Tie2) = TEK (Tie2) (Homo sapiens, UniProt Q02763); assay: Kinase panel profiling: TEK; assay type: biochemical; details: ATP equal to KM
YES1 = YES1 (Homo sapiens, UniProt P07947); assay: Kinase panel profiling: YES1; assay type: biochemical; details: ATP equal to KM
YES1, sequence (P07947 whole entry): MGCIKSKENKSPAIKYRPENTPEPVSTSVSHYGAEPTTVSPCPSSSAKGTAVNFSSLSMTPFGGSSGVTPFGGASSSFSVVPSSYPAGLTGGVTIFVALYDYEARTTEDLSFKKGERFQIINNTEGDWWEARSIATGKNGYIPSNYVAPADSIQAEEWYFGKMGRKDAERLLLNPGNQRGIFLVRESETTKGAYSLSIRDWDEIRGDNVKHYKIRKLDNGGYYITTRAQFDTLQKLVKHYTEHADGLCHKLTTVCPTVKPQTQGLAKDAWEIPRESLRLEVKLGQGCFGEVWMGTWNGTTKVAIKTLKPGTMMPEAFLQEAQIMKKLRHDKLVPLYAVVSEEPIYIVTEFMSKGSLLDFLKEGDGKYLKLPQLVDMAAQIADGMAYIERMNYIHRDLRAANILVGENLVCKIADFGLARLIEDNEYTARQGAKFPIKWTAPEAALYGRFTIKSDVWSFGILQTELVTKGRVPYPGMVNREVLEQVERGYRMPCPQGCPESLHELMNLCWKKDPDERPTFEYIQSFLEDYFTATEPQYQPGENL

[4] = 1000 nM test concentration, read-out: Average inhibition (%)
[5] = 1000 nM, first data point, read-out: Inhibition (%)
[6] = 1000 nM, second data point, read-out: Inhibition (%)

For Cc1cccc(CN(C)c2ncnc3[nH]c(-c4cn(Cc5cccnc5)nn4)cc23)c1 [Compound 27a, N-Methyl-N-(3-methylbenzyl)-6-(1-(pyridin-3-ylmethyl)-1H-1,2,3-triazol-4-yl)-7H-pyrrolo[2,3-d]pyrimidin-4-amine], the IC50 (CSF1R Ba/F3 cells) was 300 nM, the IC50 [1] was > 30000 nM and the HLM [2] was 53.7 µL/min/mg. For the same compound, the Papp A→B (MDCK permeability assay; A-B direction) was 1.27 ×10⁻⁶ cm/s, the Papp B→A (MDCK permeability assay; B-A direction) was 3.18 ×10⁻⁶ cm/s and the efflux ratio (MDCK permeability assay; read-out: Ratio Papp B > A/Papp A > B) was 2.5. The fraction unbound [3] was < 0.01, the “selectivity score (S-score)” value (panel of 49 kinases; 30% inhibition as threshold) was 0.51 and the “selectivity score (S-score)” value (panel of 49 kinases; 50% inhibition as threshold) was 0.35. It also gave an inhibition at 1 µM (ABL1; [4]) of 99%, an inhibition at 1 µM (ABL1; [5]) of 99% and an inhibition at 1 µM (AURKA (Aurora A); [4]) of 38%. The inhibition at 1 µM (AURKA (Aurora A); [5]) was 35%, the inhibition at 1 µM (AURKA (Aurora A); [6]) was 40% and the inhibition at 1 µM (BLK; [4]) was 69%. It also gave an inhibition at 1 µM (BLK; [5]) of 69%, an inhibition at 1 µM (CAMK1D (CaMKI delta); [4]) of 5% and an inhibition at 1 µM (CAMK1D (CaMKI delta); [5]) of 2%. It also gave an inhibition at 1 µM (CAMK1D (CaMKI delta); [6]) of 9%, an inhibition at 1 µM (CHEK1 (CHK1); [4]) of 5% and an inhibition at 1 µM (CHEK1 (CHK1); [5]) of 0%. The inhibition at 1 µM (CHEK1 (CHK1); [6]) was 9%, the inhibition at 1 µM (EGFR (ErbB1); [4]) was 85% and the inhibition at 1 µM (EGFR (ErbB1); [5]) was 84%. It also gave an inhibition at 1 µM (EGFR (ErbB1); [6]) of 87%, an inhibition at 1 µM (FLT1 (VEGFR1); [4]) of 31% and an inhibition at 1 µM (FLT1 (VEGFR1); [5]) of 32%. For the same compound, the inhibition at 1 µM (FLT1 (VEGFR1); [6]) was 30%, the inhibition at 1 µM (FYN; [4]) was 76% and the inhibition at 1 µM (FYN; [5]) was 75%. For the same compound, the inhibition at 1 µM (FYN; [6]) was 77%, the inhibition at 1 µM (GSK3B (GSK3 beta); [4]) was 61% and the inhibition at 1 µM (GSK3B (GSK3 beta); [5]) was 59%. The inhibition at 1 µM (GSK3B (GSK3 beta); [6]) was 62%, the inhibition at 1 µM (LTK (TYK1); [4]) was 25% and the inhibition at 1 µM (LTK (TYK1); [5]) was 25%. It also gave an inhibition at 1 µM (MET (cMet); [4]) of 13%, an inhibition at 1 µM (MET (cMet); [5]) of 10% and an inhibition at 1 µM (MET (cMet); [6]) of 16%. It also gave an inhibition at 1 µM (MINK1; [4]) of 76%, an inhibition at 1 µM (MINK1; [5]) of 75% and an inhibition at 1 µM (MINK1; [6]) of 77%. The inhibition at 1 µM (MKNK1 (MNK1); [4]) was 2%, the inhibition at 1 µM (MKNK1 (MNK1); [5]) was 3% and the inhibition at 1 µM (MKNK1 (MNK1); [6]) was 1%. It also gave an inhibition at 1 µM (PDGFRB (PDGFR beta); [4]) of 34%, an inhibition at 1 µM (PDGFRB (PDGFR beta); [5]) of 32% and an inhibition at 1 µM (PDGFRB (PDGFR beta); [6]) of 35%. For the same compound, the inhibition at 1 µM (TEK (Tie2); [4]) was 42%, the inhibition at 1 µM (TEK (Tie2); [5]) was 44% and the inhibition at 1 µM (TEK (Tie2); [6]) was 40%. For the same compound, the inhibition at 1 µM (YES1; [4]) was 101%, the inhibition at 1 µM (YES1; [5]) was 102% and the inhibition at 1 µM (YES1; [6]) was 99%.
